According to ChEMBL document CHEMBL5244239, “Penicillin binding protein 2a: An overview and a medicinal chemistry perspective” (Eur J Med Chem, 2020):
Values after ≈ are worked out from the molar mass of the structure shown.

How the values were obtained:
[1] = target: T1, MecA (Staphylococcus aureus, UniProt Q7DHH4); assay: Inhibition of Staphylococcus aureus PBP2a
T1 sequence (Q7DHH4 whole entry): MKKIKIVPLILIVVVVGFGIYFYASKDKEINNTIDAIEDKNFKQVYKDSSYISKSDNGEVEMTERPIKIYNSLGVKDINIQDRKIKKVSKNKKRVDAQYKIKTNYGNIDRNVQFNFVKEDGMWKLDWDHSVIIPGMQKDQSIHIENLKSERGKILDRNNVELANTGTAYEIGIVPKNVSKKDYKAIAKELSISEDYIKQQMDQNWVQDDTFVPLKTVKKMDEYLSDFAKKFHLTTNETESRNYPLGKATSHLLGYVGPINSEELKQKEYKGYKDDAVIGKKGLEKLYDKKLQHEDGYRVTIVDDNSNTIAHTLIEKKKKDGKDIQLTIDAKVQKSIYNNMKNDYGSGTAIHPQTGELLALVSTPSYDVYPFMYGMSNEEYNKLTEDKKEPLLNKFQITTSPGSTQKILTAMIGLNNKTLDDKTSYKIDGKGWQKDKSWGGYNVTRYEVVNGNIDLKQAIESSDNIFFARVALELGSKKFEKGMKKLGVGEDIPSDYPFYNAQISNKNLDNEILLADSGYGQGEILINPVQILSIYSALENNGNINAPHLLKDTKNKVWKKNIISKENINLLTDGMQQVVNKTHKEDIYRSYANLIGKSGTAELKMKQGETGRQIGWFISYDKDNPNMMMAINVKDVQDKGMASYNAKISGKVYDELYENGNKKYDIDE

[2] = tested on: Staphylococcus aureus; assay: Antibacterial activity against methicillin resistant Staphylococcus aureus ATCC 43300; type: functional
[3] = tested on: Staphylococcus aureus; assay: Antibacterial activity against methicillin resistant Staphylococcus aureus PL 1; type: functional
[4] = tested on: Staphylococcus aureus; assay: Potentiation of oxacillin against methicillin resistant Staphylococcus aureus assessed as fold increase in oxacillin activity; type: functional
[5] = tested on: Staphylococcus aureus; assay: Antibacterial activity against methicillin resistant Staphylococcus aureus; type: functional
[6] = tested on: Enterococcus faecium; assay: Antibacterial activity against vancomycin-resistant Enterococcus faecium; type: functional
[7] = tested on: Staphylococcus aureus; assay: Antibacterial activity against Vancomycin-resistant Staphylococcus aureus 1; type: functional
[8] = tested on: Staphylococcus aureus; assay: Antibacterial activity against methicillin sensitive Staphylococcus aureus NRS70; type: functional
[9] = tested on: Staphylococcus aureus; assay: Antibacterial activity against Vancomycin-resistant Staphylococcus aureus 2; type: functional
[10] = tested on: Staphylococcus aureus; assay: Antibacterial activity against methicillin sensitive Staphylococcus aureus NRS120; type: functional
[11] = target: T2, Penicillin-binding protein 1 (Staphylococcus aureus, UniProt Q53725); assay: Inhibition of Staphylococcus aureus PBP1
T2 sequence (Q53725 whole entry): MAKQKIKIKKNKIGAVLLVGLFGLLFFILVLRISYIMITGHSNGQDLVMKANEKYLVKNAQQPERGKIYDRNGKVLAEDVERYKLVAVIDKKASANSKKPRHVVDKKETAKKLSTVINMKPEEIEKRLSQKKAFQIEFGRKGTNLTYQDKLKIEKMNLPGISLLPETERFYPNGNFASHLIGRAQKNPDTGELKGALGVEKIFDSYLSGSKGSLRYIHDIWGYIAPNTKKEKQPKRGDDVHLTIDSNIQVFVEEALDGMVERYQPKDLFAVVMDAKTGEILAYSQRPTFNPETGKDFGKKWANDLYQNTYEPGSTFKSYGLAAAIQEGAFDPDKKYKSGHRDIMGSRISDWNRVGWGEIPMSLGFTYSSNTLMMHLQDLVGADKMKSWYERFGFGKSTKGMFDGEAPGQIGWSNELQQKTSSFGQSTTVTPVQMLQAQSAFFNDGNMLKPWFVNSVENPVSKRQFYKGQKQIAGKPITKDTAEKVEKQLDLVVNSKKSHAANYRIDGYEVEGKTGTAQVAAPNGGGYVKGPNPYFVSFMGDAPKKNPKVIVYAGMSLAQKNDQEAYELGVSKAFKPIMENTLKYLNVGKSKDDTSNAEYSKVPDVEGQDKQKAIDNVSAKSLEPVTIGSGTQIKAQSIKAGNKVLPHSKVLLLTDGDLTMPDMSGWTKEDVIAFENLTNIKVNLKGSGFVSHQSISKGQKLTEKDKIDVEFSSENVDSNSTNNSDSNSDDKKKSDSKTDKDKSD

[12] = tested on: Staphylococcus aureus; assay: Antibacterial activity against methicillin sensitive Staphylococcus aureus NRS123; type: functional
[13] = tested on: Staphylococcus aureus; assay: Antibacterial activity against methicillin sensitive Staphylococcus aureus NRS128; type: functional
[14] = tested on: Staphylococcus aureus; assay: Antibacterial activity against methicillin sensitive Staphylococcus aureus ATCC 29213; type: functional
[15] = tested on: Staphylococcus aureus; assay: Antibacterial activity against methicillin sensitive Staphylococcus aureus NRS119; type: functional
[16] = tested on: Staphylococcus aureus; assay: Antibacterial activity against methicillin sensitive Staphylococcus aureus NRS100; type: functional

CC1(C)S[C@@H]2[C@H](N)C(=O)N2[C@H]1C(=O)O
IC50 [1]: 7 mM

C[C@@H](NC(=O)c1c(F)cccc1-c1ccccc1)B(O)O
MIC [2]: 32 mg/L (≈ 111 µM) | MIC [3]: 32 mg/L (≈ 111 µM)

C=C1CCC[C@@H]2Nc3ccc(Br)cc3[C@]12CCNS(=O)(=O)c1ccc(Cl)cc1
fold change (FC) [4]: 128

Oc1ccc(-c2nc(-c3ccc(Oc4ccccc4)cc3)no2)cc1
MIC [5]: 1 mg/L (≈ 3.03 µM) | MIC [6]: 1 mg/L (≈ 3.03 µM)

Oc1ccc(-c2nc(-c3ccc(Oc4ccc(C(F)(F)F)cc4)cc3)no2)cc1
MIC [5]: 1 mg/L (≈ 2.51 µM) | MIC [6]: 1 mg/L (≈ 2.51 µM)

Nc1ccc(-c2nc(-c3ccc(Oc4ccc(C(F)(F)F)cc4)cc3)no2)cc1
MIC [5]: 1 mg/L (≈ 2.52 µM) | MIC [6]: 1 mg/L (≈ 2.52 µM)

N#Cc1ccc(/C=C/c2nc3ccccc3c(=O)n2-c2cccc(C(=O)O)c2)cc1
MIC [7]: 2 mg/L (≈ 5.08 µM) | MIC [8]: 2 mg/L (≈ 5.08 µM) | MIC [9]: 2 mg/L (≈ 5.08 µM) | MIC [10]: 2 mg/L (≈ 5.08 µM) | IC50 [11]: 78 mg/L (≈ 198 µM) | MIC [12]: 2 mg/L (≈ 5.08 µM) | MIC [13]: 2 mg/L (≈ 5.08 µM) | IC50 [1]: 0.356 mM | MIC [14]: 2 mg/L (≈ 5.08 µM) | MIC [15]: 2 mg/L (≈ 5.08 µM) | MIC [16]: 2 mg/L (≈ 5.08 µM)

C#Cc1ccc(/C=C/c2nc3ccccc3c(=O)n2-c2cccc(C(=O)O)c2)cc1
MIC [5]: 0.03 mg/L (≈ 0.0764 µM)

O=c1c2ccccc2nc(/C=C/c2ccc([N+](=O)[O-])cc2)n1-c1cccc(O)c1
MIC [14]: 2 mg/L (≈ 5.19 µM)

CC(=O)/C(=C/c1cn(CC(=O)N2CCCCC2)c2ccccc12)n1cc([N+](=O)[O-])nc1C
MIC [5]: 1 mg/L (≈ 2.3 µM)
